Source: ChEMBL document CHEMBL5512637, “Development of Membrane-Targeting Fluorescent 2-Phenyl-1H-phenanthro[9,10-d]imidazole-Antimicrobial Peptide Mimic Conjugates against Methicillin-Resistant Staphylococcus aureus” (J Med Chem, 2024)
The source made the active and inactive calls. The rule behind the calls is not given here.

Columns and labels:
[1] = Toxicity in KM mouse assessed as change in creatinine level at 20 mg/kg, sc measured after 24 hrs; type: organism-based; conditions: in vivo
Staphylococcus aureus [2] = experiment: Disruption of cell membrane in methicillin-resistant Staphylococcus aureus clinical isolate M-4 assessed as DNA leakage at 1 to 8 times MIC incubated for 4 hrs by microspectrophotometry; type: functional, organism-based
[3] = Cytotoxicity against human L02 cells assessed as cell survival at 32 ug/ml by MTT assay relative to control; type: toxicity, cell-based; conditions: at 32 µg/mL, read-out: Survival
Staphylococcus aureus [4] = experiment: Disruption of cell membrane in methicillin-resistant Staphylococcus aureus clinical isolate M-4 assessed as cell membrane rupture at 8 times MIC incubated for 1 hr by SEM analysis; type: functional, organism-based
[5] = Toxicity in KM mouse infected with methicillin-resistant Staphylococcus aureus clinical isolate M-4 assessed as histopathological abnormality in spleen at 5 to 10 mg/kg, sc measured after 24 hrs by H and E staining based analysis; type: organism-based; conditions: in vivo, dose 5-10 mg/kg
Staphylococcus aureus [6] = experiment: Antibacterial activity against methicillin-resistant Staphylococcus aureus clinical isolate M-4 infected in KM mouse assessed as reduction in skin inflammation at 10 mg/kg, sc measured after 24 hrs by H and E staining based analysis; type: functional, organism-based
Staphylococcus aureus [7] = experiment: Antibacterial activity against Staphylococcus aureus ATCC 29213 at 1 ug/ml in presence of exogenous DNA; type: functional, organism-based; conditions: dose 1.0 µg/ml
Staphylococcus aureus [8] = experiment: Antibacterial activity against methicillin-resistant Staphylococcus aureus clinical isolate M-6 incubated for 16 to 18 hrs CLSI based by microbroth dilution assay; type: functional; conditions: time 16-18 hrs
Staphylococcus aureus [9] = experiment: Antibacterial activity against Staphylococcus aureus ATCC 29213 incubated for 16 to 18 hrs CLSI based by microbroth dilution assay; type: functional; conditions: time 16-18 hrs
[10] = Toxicity in KM mouse infected with methicillin-resistant Staphylococcus aureus clinical isolate M-4 assessed as histopathological abnormality in lungs at 5 to 10 mg/kg, sc measured after 24 hrs by H and E staining based analysis; type: organism-based; conditions: in vivo, dose 5-10 mg/kg
[11] = Binding affinity to phosphatidylglycerol (unknown origin) assessed as dissociation constant by ITC analysis
[12] = Toxicity in KM mouse assessed as change in urea level at 20 mg/kg, sc measured after 24 hrs; type: organism-based; conditions: in vivo
Staphylococcus aureus [13] = experiment: Induction of resistance development in Staphylococcus aureus ATCC 29213 assessed as fold increase in MIC at MIC measured after 17 passages relative to control; type: functional
Staphylococcus aureus [14] = experiment: Antibacterial activity against methicillin-resistant Staphylococcus aureus clinical isolate M-4 infected in KM mouse assessed as survival rate of bacteria at 10 mg/kg, sc measured after 24 hrs relative to control; type: functional
Staphylococcus aureus [15] = experiment: Disruption of cell membrane in methicillin-resistant Staphylococcus aureus clinical isolate M-4 assessed as wrinkled cell membrane at 8 times MIC incubated for 1 hr by SEM analysis; type: functional, organism-based
Staphylococcus aureus [16] = experiment: Antibacterial activity against methicillin-resistant Staphylococcus aureus clinical isolate M-9 incubated for 16 to 18 hrs CLSI based by microbroth dilution assay; type: functional; conditions: time 16-18 hrs
Staphylococcus aureus [17] = experiment: Antibacterial activity against methicillin-resistant Staphylococcus aureus clinical isolate M-8 incubated for 16 to 18 hrs CLSI based by microbroth dilution assay; type: functional; conditions: time 16-18 hrs
[18] = Toxicity in KM mouse assessed as survival rate at 5 to 80 mg/kg, sc measured for 24 hrs; type: organism-based; conditions: in vivo, dose 5-80 mg/kg
Escherichia coli = experiment: Antibacterial activity against Escherichia coli ATCC 25922 incubated for 16 to 18 hrs CLSI based by microbroth dilution assay; type: functional; conditions: time 16-18 hrs
[19] = Toxicity in KM mouse assessed as change in hematocrit level at 20 mg/kg, sc measured after 24 hrs; type: organism-based; conditions: in vivo
Staphylococcus aureus [20] = experiment: Antibacterial activity against methicillin-resistant Staphylococcus aureus clinical isolate M-4 infected in KM mouse assessed as decrease in abscesses in subcutaneous tissue at 5 to 10 mg/kg, sc measured after 24 hrs by H and E staining based analysis; type: functional, organism-based; conditions: dose 5-10 mg/kg
[21] = Cytotoxicity against human L02 cells assessed as cell survival at 16 ug/ml by MTT assay relative to control; type: toxicity, cell-based; conditions: at 16 µg/mL, read-out: Survival
Staphylococcus aureus [22] = experiment: Bactericidal activity against Staphylococcus aureus ATCC 29213 assessed as fold increase in fluorescence intensity at MIC incubated for 180 mins relative to control; type: functional; conditions: 3 h
[23] = Stability in sheep plasma at MBC measured for 6 hrs; type: ADME, cell-free, Ovis aries
Staphylococcus aureus [24] = experiment: Antibacterial activity against methicillin-resistant Staphylococcus aureus clinical isolate M-4 infected in KM mouse assessed as decrease in abnormality in skin area at 10 mg/kg, sc measured after 24 hrs by H and E staining based analysis; type: functional, organism-based
[25] = Toxicity in KM mouse assessed as change in platelet count at 20 mg/kg, sc measured after 24 hrs; type: organism-based; conditions: in vivo
Staphylococcus aureus [26] = experiment: Antibacterial activity against methicillin-resistant Staphylococcus aureus clinical isolate M-5 incubated for 16 to 18 hrs CLSI based by microbroth dilution assay; type: functional; conditions: time 16-18 hrs
Staphylococcus aureus [27] = experiment: Bactericidal activity against Staphylococcus aureus ATCC 29213 at 4 to 8 times MIC by time kill assay; type: functional, organism-based; conditions: TDE = time-dependent effect
Staphylococcus aureus [28] = experiment: Antibacterial activity against methicillin-resistant Staphylococcus aureus clinical isolate M-7 incubated for 16 to 18 hrs CLSI based by microbroth dilution assay; type: functional; conditions: time 16-18 hrs
Staphylococcus aureus [29] = experiment: Bactericidal activity against methicillin-resistant Staphylococcus aureus clinical isolate M-4 at 4 to 8 times MIC by time kill assay; type: functional, organism-based; conditions: TDE = time-dependent effect
[30] = Hemolytic activity in sheep erythrocytes incubated for 1 hr by absorbance based assay; type: toxicity, cell-based, Ovis aries, Erythrocyte
[31] = Toxicity in KM mouse assessed as histological abnormality in kidney at 20 mg/kg, sc measured after 24 hrs by H and E staining based analysis; type: organism-based; conditions: in vivo
Staphylococcus aureus [32] = experiment: Bactericidal activity against methicillin-resistant Staphylococcus aureus clinical isolate M-4 by time kill assay; type: functional, organism-based
[33] = Toxicity in KM mouse infected with methicillin-resistant Staphylococcus aureus clinical isolate M-4 assessed as histopathological abnormality in heart at 5 to 10 mg/kg, sc measured after 24 hrs by H and E staining based analysis; type: organism-based; conditions: in vivo, dose 5-10 mg/kg
Staphylococcus aureus [34] = experiment: Disruption of cell membrane in methicillin-resistant Staphylococcus aureus clinical isolate M-4 assessed as increase in red fluorescence incubated for 2 hrs by SYTO9/PI staining based flow cytometry; type: functional, organism-based; conditions: dose 4-64 µg/ml
[35] = Toxicity in KM mouse assessed as change in hemoglobin level at 20 mg/kg, sc measured after 24 hrs; type: organism-based; conditions: in vivo
Staphylococcus aureus [36] = experiment: Disruption of cell membrane in methicillin-resistant Staphylococcus aureus clinical isolate M-4 assessed as increase in red fluorescence at 32 ug/ml incubated for 2 hrs by SYTO9/PI staining based flow cytometry relative to control; type: functional; conditions: dose 32 µg/ml
[37] = Toxicity in KM mouse assessed as histological abnormality in spleen at 20 mg/kg, sc measured after 24 hrs by H and E staining based analysis; type: organism-based; conditions: in vivo
Staphylococcus aureus [38] = experiment: Antibacterial activity against methicillin-resistant Staphylococcus aureus clinical isolate M-4 upto 128 ug/ml incubated for 16 to 18 hrs in presence of phosphatidylethanolamine by broth dilution method; type: functional, organism-based; conditions: dose <= 128.0 µg/ml, time 16-18 hrs
Staphylococcus aureus [39] = experiment: Bactericidal activity against methicillin-resistant Staphylococcus aureus clinical isolate M-4 at 8 times MIC incubated for 4 hrs by time kill assay relative to control; type: functional

In the case of `CCCCCNC(=O)C[N+](C)(C)CCCCn1c(-c2ccc(N(C)C)cc2)nc2c3ccccc3c3ccccc3c21.[Br-]`, the Activity [1] is reported as “Non-Toxic”, the Activity (Staphylococcus aureus [2]) is reported as “Active” and the viability at 32 ug/ml [3] is reported as greater than 72.2%. The Activity (Staphylococcus aureus [4]) was “Active”, the Activity [5] was “Non-Toxic” and the Activity (Staphylococcus aureus [6]) was “Active”. For the same compound, the Activity (Staphylococcus aureus [7]) was “Active”, the MIC (Staphylococcus aureus [8]) was 0.5 µg/mL and the MIC (Staphylococcus aureus [9]) was 1 µg/mL. The Activity [10] was “Non-Toxic”, the Kd [11] was 39.8 µM and the Activity [12] was “Non-Toxic”. For the same compound, the fold change (FC) (Staphylococcus aureus [13]) was 128, the survival at 10 mg/kg (Staphylococcus aureus [14]) was 0.01% and the Activity (Staphylococcus aureus [15]) was “Active”. It also gave an MIC (Staphylococcus aureus [16]) of 0.5 µg/mL, an MIC (Staphylococcus aureus [17]) of 0.5 µg/mL and a survival at 24 h [18] of 100%. For the same compound, the MIC (Escherichia coli) was 32 µg/mL, the Activity [19] was “Non-Toxic” and the Activity (Staphylococcus aureus [20]) was “Active”. For the same compound, the viability at 16 ug/ml [21] was 100%, the “fold change (FC)” value (Staphylococcus aureus [22]) was roughly 1.9 and the Stability [23] was “Stable”. For the same compound, the Activity (Staphylococcus aureus [24]) was “Active”, the Activity [25] was “Non-Toxic” and the MIC (Staphylococcus aureus [26]) was 2 µg/mL. For the same compound, the Activity (Staphylococcus aureus [27]) was “Tde”, the MIC (Staphylococcus aureus [28]) was 0.5 µg/mL and the Activity (Staphylococcus aureus [29]) was “Tde”. For the same compound, the HC50 at 1 h [30] was 859 µg/mL, the Activity [31] was “Non-Toxic” and the Activity (Staphylococcus aureus [32]) was “Dose-Dependent Effect”. The Activity [33] was “Non-Toxic”, the Activity (Staphylococcus aureus [34]) was “Dose-Dependent Effect” and the Activity [35] was “Non-Toxic”. For the same compound, the Activity (Staphylococcus aureus [36]) was 99.34%, the Activity [37] was “Non-Toxic” and the Activity (Staphylococcus aureus [38]) was “Active”. It also gave an Activity (Staphylococcus aureus [39]) of 100%.
